Experimental data as given in patent US11684067B2, “Generation of peroxyformic acid through polyhydric alcohol formate” (priority 2014, dated 2023).
Read-outs that look alike come from different tables or passages of the source.

How the values were obtained:
Various pathogens = type: cell-based
[1] = tested on: Aspergillus brasiliensis ATCC 16404; assay: Fungicidal activity of ester PFA, dirty conditions (Example 20); type: cell-based; details: 5 minutes
Description: (§1) Various Bacillus and Aspergillus pathogens were used to evaluate the micro efficacy of ester PFA generated according to methods of the present invention.

[2] = cited from earlier work
[3] = tested on: Bacillus subtilis ATCC 6633; assay: Sporicidal activity of ester PFA, dirty conditions (Example 20); type: cell-based; details: 5 minutes
Description: as §1

[4] = tested on: Bacillus subtilis ATCC 19659; assay: as above; type: cell-based; details: 5 minutes
Description: as §1

[5] = tested on: Candida albicans ATCC 10231; assay: Fungicidal/yeasticidal activity of ester PFA versus POAA (Example 22); type: cell-based; details: for Average CFU/mL / Log10 Growth / Log10 Reduction: 20°C, dirty
Description: (§2) Canidia and Aspergillus pathogens were used to evaluate the micro efficacy of ester PFA generated according to methods of the present invention in comparison to POAA.

[6] = tested on: Aspergillus brasiliensis ATCC 16404; assay: as above; type: cell-based
Description: as §2

[7] = 200 ppm PFA pH 6.15 / 245 ppm POAA pH 6.56, 5 minutes
[8] = 200 ppm PFA pH 6.15 / 245 ppm POAA pH 6.56, 10 minutes
[9] = 200 ppm PFA pH 6.15 / 245 ppm POAA pH 6.56, 15 minutes
[10] = 300 ppm PFA pH 6.21 / 368 ppm POAA pH 6.63, 5 minutes
[11] = 300 ppm PFA pH 6.21 / 368 ppm POAA pH 6.63, 10 minutes

## O=COO [PFA, peroxyformic acid]
Various pathogens; EN 13624, 450 ppm PFA pH 6-7, Aspergillus brasiliensis ATCC 1604, passing requirement 4 log reduction
  Result: PASS
Various pathogens; EN 13624, 450 ppm PFA pH 6-7, Canidia albicans ATCC 10231, passing requirement 4 log reduction
  Result: PASS
Various pathogens; EN 13704, 450 ppm PFA pH 6-7, Bacillus subtilis ATCC 6633, passing requirement 3 log reduction
  Result: PASS
Various pathogens; EN 13727, 450 ppm PFA pH 6-7, Enterococcus hirae ATCC 10541, passing requirement 5 log reduction
  Result: PASS
Various pathogens; EN 13727, 450 ppm PFA pH 6-7, P. aeruginosa ATCC 15442, passing requirement 5 log reduction
  Result: PASS
Various pathogens; EN 13727, 450 ppm PFA pH 6-7, Staph Aureus ATCC 6538, passing requirement 5 log reduction
  Result: PASS
Various pathogens; pH 6
  Result: PASS
[1]; 200 ppm PFA pH 5.81, 35°C
  Log10 Growth: >4.22 Log10
  Log10 Reduction: <1.89 Log10
[1]; 250 ppm PFA pH 5.82, 35°C
  Log10 Growth: 3.55 Log10
  Log10 Reduction: 2.56 Log10
[1]; 300 ppm PFA pH 5.91, 35°C
  Log10 Growth: 3.38 Log10
  Log10 Reduction: 2.73 Log10
[1]; 350 ppm PFA pH 5.88, 35°C
  Log10 Growth: 3.46 Log10
  Log10 Reduction: 2.65 Log10
[2]
  pKa value: 7.2
[3]; 200 ppm PFA pH 5.81, 35°C
  Log10 Growth: <2.18 Log10
  Log10 Reduction: >3.91 Log10
[3]; 250 ppm PFA pH 5.82, 35°C
  Log10 Growth: <2.18 Log10
  Log10 Reduction: >3.91 Log10
[3]; 300 ppm PFA pH 5.91, 35°C
  Log10 Growth: <2.18 Log10
  Log10 Reduction: >3.91 Log10
[3]; 350 ppm PFA pH 5.88, 35°C
  Log10 Growth: <2.18 Log10
  Log10 Reduction: >3.91 Log10
[4]; 200 ppm PFA pH 5.81, 35°C
  Log10 Growth: <2.18 Log10
  Log10 Reduction: >3.87 Log10
[4]; 250 ppm PFA pH 5.82, 35°C
  Log10 Growth: <2.18 Log10
  Log10 Reduction: >3.87 Log10
[4]; 300 ppm PFA pH 5.91, 35°C
  Log10 Growth: <2.18 Log10
  Log10 Reduction: >3.87 Log10
[4]; 350 ppm PFA pH 5.88, 35°C
  Log10 Growth: <2.18 Log10
  Log10 Reduction: >3.87 Log10
[5]; 5, 10 and 15 minutes, lower actives, FIG. 18
  reduction in C. albicans compared with POAA: equivalent reduction
[5]; [7]
  Average CFU/mL: <140 CFU/mL
  Log10 Growth: <2.15 Log10
  Log10 Reduction: >4.14 Log10
[5]; [8]
  Average CFU/mL: <140 CFU/mL
  Log10 Growth: <2.15 Log10
  Log10 Reduction: >4.14 Log10
[5]; [9]
  Average CFU/mL: <140 CFU/mL
  Log10 Growth: <2.15 Log10
  Log10 Reduction: >4.14 Log10
[5]; [10]
  Average CFU/mL: <140 CFU/mL
  Log10 Growth: <2.15 Log10
  Log10 Reduction: >4.14 Log10
[5]; [11]
  Average CFU/mL: <140 CFU/mL
  Log10 Growth: <2.15 Log10
  Log10 Reduction: >4.14 Log10
[6]; 5, 10 and 15 minutes, lower actives, FIG. 19
  reduction in A. brasiliensis conidio spores compared with POAA: improved reduction
[6]; 200 ppm PFA pH 6.15 / 245 ppm POAA pH 6.56, 5 minutes, 20°C, dirty
  Average CFU/mL: 1.60E+04 CFU/mL
